Laboratory results as given in US20250186600A1, “EXCIPIENT COMPOUNDS FOR PROTEIN FORMULATIONS” (Comera Life Sciences, Inc., priority 2020, published 2025).
Several values for one entry are separate records, joined by “and”; a condition that tells them apart may be missing. Equal values may be shown once. Where a name gives a salt, the structure may show the parent alone. Values belong to the compound of their own block, whether it stands above or below them.

Assays:
ustekinumab [1] = test: Urea denaturation, Sypro orange fluorescence (Example 44); format: physicochemical; settings: excipient 5 mg/mL, ustekinumab 1 mg/mL, 6M urea, 20 mM histidine pH 6.0, Sypro orange fluorescence
Text: It is known that urea denatures proteins in solution and causes them to unfold. The screening methodology in this example involved adding a specific concentration of urea to a therapeutic protein solution such as ustekinumab. […] One method to track protein unfolding involves the use of extrinsic fluorescent dyes such as Sypro orange. Sypro orange binds to hydrophobic regions in the unfolded protein structure, leading to an increase in the fluorescence signal observed. Measuring the differences in the fluorescence intensity of unfolded protein-Sypro orange complex in presence of different excipients thus allows one to identify any stabilizing effects.
All excipients used in this Example, listed in Table 45 below, were of the highest purity, and were obtained from Sigma Aldrich (St. Louis, MO) or Cayman Chemical (Ann Arbor, MI). […] This urea stock solution was then added to a final concentration of 6M to produce the test solutions (excipient plus protein plus urea). […] The pH of the mixture was rechecked and confirmed to be at pH 6.0. The test solutions were allowed to incubate at room temperature for 30 min.

infliximab = test: Thermal degradation assay at 55° C., normalized monomer loss rate by HP-SEC (Example 51); format: physicochemical; settings: infliximab about 2 mg/mL, 20 mM phosphate pH 7, 55° C.
Method: ® infliximab was obtained from the Clinigen Group and reconstituted according to the instructions in the Janssen package insert, resulting in a 10 mg/mL infliximab solution in 5 mM phosphate buffer, pH about 7, with 50 mg/mL sucrose and 0.05 mg/mL polysorbate 80. The reconstituted drug product was then combined 1:1 by volume with 50 mM sodium acetate buffer at pH 5. The resulting solution was then injected onto a small preparative scale cation exchange column (GE Healthcare, Chicago, IL). After the infliximab was loaded onto the column, the column was washed with 10 column volumes of 50 mM sodium acetate buffer, pH 5. The infliximab was then eluted from the column with five column volumes of a 250 mM sodium chloride, 50 mM sodium acetate buffer at pH 5. […] Stock solutions of either 4 or 8 mg/mL infliximab in 20 mM phosphate buffer at pH 7 were then used in subsequent tests.
All excipients used in this Example, listed in Table 52 below, were of the highest purity, and were obtained from Sigma Aldrich (St. Louis, MO) or Cayman Chemical (Ann Arbor, MI). The stock infliximab solutions were mixed with stock excipient solutions containing the excipients listed in Table 52 formulated in 20 mM phosphate buffer, pH 7 to achieve a final infliximab concentration of about 2 mg/mL in each sample. The samples containing the infliximab solutions and the stock excipient solutions were then aliquoted into five 100 μL aliquots in PCR tubes. […] These stressed samples were then analyzed for monomer content by high performance size exclusion chromatography (HP-SEC) using an Agilent 1100 series HPLC equipped with a diode array detector monitoring absorbance at 280 nm. […] For each sample, the monomer peak area was divided by the monomer peak area obtained from an identical but unstressed sample to obtain the percent monomer remaining after exposure to thermal stress. The remaining monomer as a percentage of the unstressed sample was then plotted as a function of incubation time and the absolute value of the slope of a linear fit to the data was recorded as the monomer loss rate.

ustekinumab [2] = test: Stabilization at low pH, Sypro orange fluorescence (Example 45); settings: excipient 5 mg/mL, ustekinumab 1 mg/mL, glycine acidification buffer pH 2.6, Sypro orange fluorescence
omalizumab [3] = test: DLS viscosity of concentrated omalizumab (Example 53); format: physicochemical; parameters: key to DLS Viscosity, Replicate 1: observation on combining excipient with protein / DLS Viscosity, Replicate 2: observation on combining excipient with protein: * Combination of excipient with protein resulted in reversible precipitation; settings: 20 mM HisHCl pH 6; for DLS Viscosity, Replicate 1 / DLS Viscosity, Replicate 2: concentrated omalizumab 9 parts : 1 part excipient stock (1 M or solubility limit)
Method: O-(octylphosphoryl)choline was purchased from Sigma Aldrich (St. […] O-(octylphosphoryl)choline was used as a stock excipient without additional preparation. […] In this example, the ratio of apparent radius to the actual radius of the gold nanoparticle was multiplied by the viscosity of water at 25° C. to calculate the viscosity of the protein formulation in centipoise (cP).

[4] = Caffeine solubility with co-solutes during refrigerated storage (Example 61); format: physicochemical; parameters: key: (PPT)—precipitate observed; (—)—clear solution observed; settings: 50 mM co-solute, 25 mM histidine pH 6, stored 2 to 5° C.
Method: The resulting microplates were then sealed with microplate tape and stored in a refrigerator with the temperature maintained in the range of 2 to 5° C. Over the course of storage, the microplates were visually observed for evidence of precipitate in the well.

omalizumab [5] = test: Viscosity of omalizumab solution by DLS of gold nanoparticles (Example 62); settings: Table 62B series; omalizumab approximately 200 mg/mL, excipient 0.1M or lower, His HCl pH 6.0, 25° C.
omalizumab [6] = test: Diffusion interaction parameter kD of omalizumab by DLS (Example 62); settings: Table 62B series; omalizumab 10 to 0.6 mg/mL, 0.1M excipient, His HCl pH 6.0, 25° C.
[7] = concentrated omalizumab 9 parts : 1 part excipient stock

Structure (SMILES): O=C(O)CCCc1ccccc1 [4-phenylbutyric acid]
- % increased stability (ustekinumab [1]): 9.0%

Structure (SMILES): Cl.N=C(N)NCCC[C@H](N)C(=O)O [Arg HCl]
- Monomer loss rate (infliximab; excipient 125 mM): 0.1186 % mon/min
- Normalized monomer loss rate (infliximab; excipient 125 mM): 0.740

Structure (SMILES): O[C@H]1[C@H](O)[C@@H](O)CN2CC[C@H](O)[C@H]12 [Castanospermine]
- % change in stability (ustekinumab [2]): 95.9%
- % increased stability (ustekinumab [1]): 7.0%

Structure (SMILES): NCCSSCCN [Cystamine]
- % change in stability (ustekinumab [2]): 17.8%
- % increased stability (ustekinumab [1]): 8.8%

Structure (SMILES): CCN(CC)CCOC(=O)C1(C2CCCCC2)CCCCC1 [Dicyclomine HCl]
- DLS Viscosity, Replicate 1: observation on combining excipient with protein (omalizumab [3]; [7]): *
- DLS Viscosity, Replicate 2: observation on combining excipient with protein (omalizumab [3]; [7]): *

Structure (SMILES): CC(O)(P(=O)(O)O)P(=O)(O)O [Etidronate]
- Monomer loss rate (infliximab; excipient 25 mM): 0.0824 % mon/min
- Normalized monomer loss rate (infliximab; excipient 25 mM): 0.514
- Monomer loss rate (infliximab; excipient 50 mM): 0.0685 % mon/min
- Normalized monomer loss rate (infliximab; excipient 50 mM): 0.428
- Monomer loss rate (infliximab; excipient 100 mM): 0.0321 % mon/min and 0.0284 % mon/min
- Normalized monomer loss rate (infliximab; excipient 100 mM): 0.200 and 0.177

Structure (SMILES): O=S(=O)(O)CCN1CCN(CCO)CC1 [HEPES]
- DLS Viscosity, Replicate 1 (omalizumab [3]): 15.9 cP
- DLS Viscosity, Replicate 2 (omalizumab [3]): 17.4 cP

Structure (SMILES): [Cl-].[Na+] [NaCl]
- Monomer loss rate (infliximab; excipient 150 mM): 0.0727 % mon/min
- Normalized monomer loss rate (infliximab; excipient 150 mM): 0.454

Structure (SMILES): NC[C@H]1O[C@H](O[C@H]2[C@H](O)[C@@H](O)[C@H](N)C[C@@H]2N)[C@H](N)[C@@H](O)[C@@H]1O [Neamine]
- % change in stability (ustekinumab [2]): 5.9%
- % increased stability (ustekinumab [1]): 2.8%

Structure (SMILES): NC(=O)c1cccnc1 [Nicotinamide]
- % increased stability (ustekinumab [1]): 2.7%
- Day 1 (visual observation for precipitate) ([4]; caffeine 7.5 mg/mL): —
- Day 7 (visual observation for precipitate) ([4]; caffeine 7.5 mg/mL): —
- Day 18 (visual observation for precipitate) ([4]; caffeine 7.5 mg/mL): —
- Day 27 (visual observation for precipitate) ([4]; caffeine 7.5 mg/mL): —
- Day 56 (visual observation for precipitate) ([4]; caffeine 7.5 mg/mL): —
- Day 1 (visual observation for precipitate) ([4]; caffeine 10 mg/mL): —
- Day 7 (visual observation for precipitate) ([4]; caffeine 10 mg/mL): —
- Day 18 (visual observation for precipitate) ([4]; caffeine 10 mg/mL): —
- Day 27 (visual observation for precipitate) ([4]; caffeine 10 mg/mL): —
- Day 56 (visual observation for precipitate) ([4]; caffeine 10 mg/mL): —
- Day 1 (visual observation for precipitate) ([4]; caffeine 12.5 mg/mL): —
- Day 7 (visual observation for precipitate) ([4]; caffeine 12.5 mg/mL): —
- Day 18 (visual observation for precipitate) ([4]; caffeine 12.5 mg/mL): —
- Day 27 (visual observation for precipitate) ([4]; caffeine 12.5 mg/mL): —
- Day 56 (visual observation for precipitate) ([4]; caffeine 12.5 mg/mL): —
- Day 1 (visual observation for precipitate) ([4]; caffeine 15 mg/mL): —
- Day 7 (visual observation for precipitate) ([4]; caffeine 15 mg/mL): —
- Day 18 (visual observation for precipitate) ([4]; caffeine 15 mg/mL): —
- Day 27 (visual observation for precipitate) ([4]; caffeine 15 mg/mL): —
- Day 56 (visual observation for precipitate) ([4]; caffeine 15 mg/mL): PPT
- Day 1 (visual observation for precipitate) ([4]; caffeine 20 mg/mL): —
- Day 7 (visual observation for precipitate) ([4]; caffeine 20 mg/mL): —
- Day 18 (visual observation for precipitate) ([4]; caffeine 20 mg/mL): PPT
- Day 27 (visual observation for precipitate) ([4]; caffeine 20 mg/mL): PPT
- Day 56 (visual observation for precipitate) ([4]; caffeine 20 mg/mL): PPT

Structure (SMILES): CCCCCCCCOP(=O)([O-])OCC[N+](C)(C)C [O-(octylphosphoryl)choline]
- DLS Viscosity, Replicate 1 (omalizumab [3]): 35.6 cP
- DLS Viscosity, Replicate 2 (omalizumab [3]): 35.4 cP

Structure (SMILES): NCCc1c[nH]c2ccccc12 [Tryptamine]
- % increased stability (ustekinumab [1]): 11.6%

Structure (SMILES): O=C(O)c1cccnc1 [nicotinic acid]
- Viscosity normalized to control (omalizumab [5]): 0.55
- kD (omalizumab [6]): -24.5 mL/g

Results, then the compound that gave them:

- DLS Viscosity, Replicate 1 (omalizumab [3]): 45.5 cP
- DLS Viscosity, Replicate 2 (omalizumab [3]): 36.2 cP
Structure (SMILES): OC(CCN1CCCCC1)(c1ccccc1)c1ccccc1 [Pridinol Methanesulfonate]

- Monomer loss rate (infliximab; excipient 200 mM): 0.0656 % mon/min
- Normalized monomer loss rate (infliximab; excipient 200 mM): 0.409
Structure (SMILES): OC[C@@H](O)[C@@H](O)[C@H](O)[C@@H](O)CO [Sorbitol]

- % change in stability (ustekinumab [2]): 98.1%
- % increased stability (ustekinumab [1]): 12.9%
Structure (SMILES): NCCCCNCCCN [Spermidine]

- % change in stability (ustekinumab [2]): 90.0%
- % increased stability (ustekinumab [1]): 16.8%
Structure (SMILES): NCCCNCCCCNCCCN [Spermine]

- % change in stability (ustekinumab [2]): 8.3%
- % increased stability (ustekinumab [1]): 6.1%
Structure (SMILES): CCNC(=O)CC[C@H](N)C(=O)O [Theanine]

- % increased stability (ustekinumab [1]): 1.4%
Structure (SMILES): NC(=NO)c1ccccc1 [benzamide oxime]

- % increased stability (ustekinumab [1]): 4.4%
Structure (SMILES): O=C(O)c1ccncc1 [isonicotinic acid]

- % increased stability (ustekinumab [1]): 2.7%
Structure (SMILES): Nc1ccc(C(=O)O)cc1 [p-aminobenzoic acid]

- Viscosity normalized to control (omalizumab [5]): 0.67
- kD (omalizumab [6]): -24.2 mL/g
Structure (SMILES): O=C(O)[C@]1(O)C[C@@H](O)[C@@H](O)[C@H](O)C1 [quinic acid]

- Viscosity normalized to control (omalizumab [5]): 1.33
- kD (omalizumab [6]): -29.9 mL/g
Structure (SMILES): CNCC(=O)O [sarcosine]

- Viscosity normalized to control (omalizumab [5]): 0.31
- kD (omalizumab [6]): -13.7 mL/g
Structure (SMILES): NCCCCNCCCN [spermidine]
